Our source for the IC50 values is paper PMC6052120, “Bioactive Phenolics of the Genus Artemisia (Asteraceae): HPLC-DAD-ESI-TQ-MS/MS Profile of the Siberian Species and Their Inhibitory Potential Against α-Amylase and α-Glucosidase” (Frontiers in Pharmacology, 2018).

Broadly, the IC50 is the midpoint of a concentration-inhibition curve.

Assay [1] addresses T1, α-amylase from Aspergillus oryzae (Aspergillus oryzae, UniProt P0C1B3).
T1 construct: purchased Sigma-Aldrich (St. Louis, MO, USA) 10065
The class given is biochemical. To be noted: pure caffeoylquinic acids (CQA); acarbose reference; read-out: Inhibitory activity against enzyme as IC50 α-Amylase. On the procedure:
α-Amylase inhibitory activity was assayed according to a previously published spectrophotometric protocol (Olennikov and Kashchenko, [2014]). Sample solution in DMSO (10 μL) at varying concentrations (10, 100, 250, 500, and 1,000 μg/mL), 30 μL of phosphate buffer (pH 5.0) and 10 μL of α-amylase from Aspergillus oryzae (3 U/mL) were incubated for 20 min at . Then 10 μL of 2% starch solution, 40 μL of phosphate buffer (pH 5.0) and 100 μL of the reagent were added and incubated for 30 min at . The reagent was a solution of K2HPO4 (0.8 mM), KH2PO4 (0.4 mM), phenol (220 mM), 4-aminoantipyrine (1.5 μM), glucose oxidase from Aspergillus oryzae (3 U/mL), and peroxidase from horseradish (0.3 U/mL) in deionized water. Absorbance was measured at 510 nm. […] The ability to inhibit α-amylase was calculated using the following equation: […]
(§1) Values are expressed as mean obtained from five independent experiments.

Assay [2] has as its target T2, α-Glucosidase from Saccharomyces cerevisiae (Saccharomyces cerevisiae, UniProt P53341).
T2 construct: purchased Sigma-Aldrich (St. Louis, MO, USA) G5003
Put plainly: α-glucosidase inhibition assay, spectrophotometric method. The class given is biochemical. The following applies: pure caffeoylquinic acids (CQA); acarbose reference; read-out: Inhibitory activity against enzyme as IC50 α-Glucosidase. On the procedure: The α-glucosidase inhibition assay was performed using spectrophotometric method (Olennikov et al., [2017b]). α-Glucosidase from Saccharomyces cerevisiae was dissolved in phosphate buffer (pH 6.8) containing bovine serum albumin (2 mg/mL) up to 0.5 U/mL concentration. Solution (10 μL) of sample in DMSO–phosphate buffer, pH 6.8 (1:9) at varying concentrations (10, 100, 250, 500, and 1,000 μg/mL) was premixed with 490 μL of phosphate buffer (pH 6.8) and 250 μL 5 mM p-nitrophenyl α-D-glucopyranoside. After preincubating at for 5 min, 250 μL α-glucosidase (0.5 U/mL) was added and incubated at for 15 min. The reaction was terminated by the addition of 2,000 μL Na2CO3 (200 mM). Absorbance was measured at 400 nm. […] The ability to inhibit α-glucosidase was calculated using the following equation: […]
as §1

T2 sequence (P53341 whole entry): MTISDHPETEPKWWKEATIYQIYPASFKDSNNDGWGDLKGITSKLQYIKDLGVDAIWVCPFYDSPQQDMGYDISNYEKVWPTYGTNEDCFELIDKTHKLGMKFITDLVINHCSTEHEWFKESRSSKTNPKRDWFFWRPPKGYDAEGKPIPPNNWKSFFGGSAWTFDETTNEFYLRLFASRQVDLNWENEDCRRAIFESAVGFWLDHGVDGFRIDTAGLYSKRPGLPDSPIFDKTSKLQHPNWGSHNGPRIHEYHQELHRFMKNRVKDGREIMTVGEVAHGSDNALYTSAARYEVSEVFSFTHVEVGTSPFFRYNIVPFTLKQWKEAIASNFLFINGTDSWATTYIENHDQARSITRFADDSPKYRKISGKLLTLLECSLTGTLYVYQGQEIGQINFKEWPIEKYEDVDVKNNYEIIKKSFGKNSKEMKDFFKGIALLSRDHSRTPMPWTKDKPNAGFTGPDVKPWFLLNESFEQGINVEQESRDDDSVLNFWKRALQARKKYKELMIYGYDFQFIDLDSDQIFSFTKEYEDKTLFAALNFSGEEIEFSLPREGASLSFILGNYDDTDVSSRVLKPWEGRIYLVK

Turning to `O=C(/C=C/c1ccc(O)c(O)c1)OC1CC(OC(=O)/C=C/c2ccc(O)c(O)c2)(C(=O)O)CC(O)C1O` (stereo not drawn) [1,3-Di-O-CQA, 1,3-Di-O-caffeoylquinic acid], the figures for the IC50 in assay [1] and in assay [2] were 101 ± 2.81 µM and 984 ± 28.5 µM, respectively.

In the case of `O=C(C=Cc1ccc(O)c(O)c1)OC1CC(OC(=O)C=Cc2ccc(O)c(O)c2)(C(=O)O)CC(O)C1O` (stereo not drawn) [1,5-Di-O-CQA, 1,5-Di-O-caffeoylquinic acid], the figures for the IC50 in assay [1] and in assay [2] were 77.4 ± 2.24 µM and 754 ± 23.4 µM, respectively.

On to `O=C(/C=C/c1ccc(O)c(O)c1)OC1[C@H](OC(=O)/C=C/c2ccc(O)c(O)c2)CC(O)(C(=O)O)C[C@H]1OC(=O)/C=C/c1ccc(O)c(O)c1` (stereo partly drawn) [3,4,5-Tri-O-CQA], for which the figures for the IC50 in assay [1] and in assay [2] were 40.6 ± 1.05 µM and 61.1 ± 1.77 µM, respectively.

For the compound `O=C(/C=C/c1ccc(O)c(O)c1)OC1CC(O)(C(=O)O)CC(O)C1OC(=O)/C=C/c1ccc(O)c(O)c1` (stereo not drawn) [3,4-Di-O-CQA, 3,4-Di-O-caffeoylquinic acid], the IC50 in assay [1] is 67.2 ± 2.01 µM; in assay [2], 210 ± 6.5 µM.

On to `O=C(/C=C/c1ccc(O)c(O)c1)OC1CC(O)(C(=O)O)CC(OC(=O)/C=C/c2ccc(O)c(O)c2)C1O` (stereo not drawn) [3,5-Di-O-CQA, 3,5-Di-O-caffeoylquinic acid], for which the IC50 worked out at 51.3 ± 1.64 µM in assay [1] and 184 ± 5.34 µM in assay [2].

Turning to `O=C(/C=C/c1ccc(O)c(O)c1)O[C@@H]1[C@H](O)C[C@@](O)(C(=O)O)C[C@H]1OC(=O)/C=C/c1ccc(O)c(O)c1` [4,5-Di-O-CQA, 4,5-Di-O-caffeoylquinic acid], the half-inhibitory concentration (IC50) came out at 42.3 ± 1.18 µM in assay [1] and 62.1 ± 1.49 µM in assay [2].

On to `O=C(/C=C/c1ccc(O)c(O)c1)OC1(C(=O)O)C[C@@H](O)C(O)[C@H](O)C1` (stereo partly drawn) [Compound 1-O-CQA], for which the IC50 in assay [1] was found to be 172 ± 5.34 µM; in assay [2], 1240 ± 42.1 µM.

In the case of `O=C(/C=C/c1ccc(O)c(O)c1)O[C@@H]1C[C@](O)(C(=O)O)C[C@@H](O)[C@H]1O` [Compound 3-O-CQA, 3-O-caffeoylquinic acid], in assay [1], the IC50 stood at 170 ± 4.41 µM.

As for `O=C(/C=C/c1ccc(O)c(O)c1)O[C@H]1[C@H](O)C[C@](O)(C(=O)O)C[C@H]1O` [Compound 4-O-CQA, 4-O-Caffeoylquinic acid], the IC50 in assay [1] came to 110 ± 3.39 µM; in assay [2], 1030 ± 40 µM.

For `O=C(/C=C/c1ccc(O)c(O)c1)O[C@@H]1C[C@](O)(C(=O)O)C[C@@H](O)[C@H]1O` [Compound 5-O-CQA, 5-O-Caffeoylquinic acid], the IC50 in assay [1] came out at 84.9 ± 2.37 µM.
